This is an account of results in patent publication US20260138978A1, “POSITIVE ALLOSTERIC MODULATORS OF THE MUSCARINIC ACETYLCHOLINE RECEPTOR M1” (Vanderbilt University, priority 2022, published 2026).

Each structure is given as a SMILES string. Some results are limits rather than exact numbers.

What is called Emax is the maximal effect, on the per cent scale that the assay sets. For orientation: EC50 means the midpoint of the concentration-response curve.

Assay [1] deals with T1, human mAChRM1 (Homo sapiens, UniProt P11229).
T1 construct: host or cells: CHO-K1
T1 sequence (P11229 1-460): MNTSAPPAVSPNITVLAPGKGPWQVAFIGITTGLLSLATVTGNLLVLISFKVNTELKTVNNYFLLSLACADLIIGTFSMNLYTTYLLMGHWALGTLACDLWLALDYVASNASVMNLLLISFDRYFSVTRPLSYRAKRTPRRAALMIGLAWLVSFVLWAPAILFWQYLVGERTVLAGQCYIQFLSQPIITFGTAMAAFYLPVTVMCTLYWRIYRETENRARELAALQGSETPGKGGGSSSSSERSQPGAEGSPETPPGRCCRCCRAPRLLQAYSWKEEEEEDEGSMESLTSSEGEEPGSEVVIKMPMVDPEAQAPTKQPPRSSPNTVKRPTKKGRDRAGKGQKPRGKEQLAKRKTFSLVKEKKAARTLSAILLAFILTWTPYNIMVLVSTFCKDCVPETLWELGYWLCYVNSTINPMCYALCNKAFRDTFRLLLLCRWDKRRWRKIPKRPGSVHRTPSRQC
Description: mAChR M1 cell-based functional assay (calcium mobilization), agonist activity upon compound addition, Emax relative to acetylcholine maximum. The settings on record: calcium mobilization upon compound addition. The source says: Lack of agonist activity may be measured as weak or no increase in calcium fluorescence in mAChRM1-transfected CHO-K1 cells in the presence of the compound, compared to the response of equivalent CHO-K1 cells in the absence of the compound. Lack of mAChRM1 agonist activity may be determined as a percent response relative to acetylcholine. For example, a disclosed compound may have less than or equal to 30%, 25%, 20%, 15%, 10%, 5%, or 1% mAChRM1 agonist activity relative to acetylcholine. A disclosed compound may have substantially no mAChRM1 agonist activity. […] The absence of mAChRM1 agonist activity may contribute to the avoidance of cholinergic adverse effect liability.
(§1) Chinese hamster ovary (CHO-K1) cells stably expressing rat (r)M1 were purchased from the American Type Culture Collection and cultured according to their indicated protocol. CHO cells stably expressing human (h)M2, hM3, and hM5 were described previously (Levey, et al., 1991); hM1 and hM4 cDNAs were purchased from Missouri S&T cDNA Resource; rM4 cDNA was provided by T. I. Bonner (National Institutes of Health, Bethesda, MD). rM2 and rM3 were cloned from a rat brain cDNA library and sequence verified. hM1, rM2, rM3, hM4, and rM4 cDNAs were used to stably transfect CHO-K1 cells purchased from the American Type Culture Collection using Lipofectamine 2000. To make stable rM2, hM2, rM3, hM4. and rM4 cell lines for use in calcium mobilization assays, these cells also were stably transfected with a chimeric G-protein (Gqi5) (provided by B. R. Conklin, University of California, San Francisco) using Lipofectamine 2000. rM1, hM1, rM3, hM3, rM5, and hM5 cells were grown in Ham's F-12 medium containing 10% heat-inactivated fetal bovine serum (FBS), 20 mM HEPES, and 50 μg/mL G418 sulfate. rM2-Gqi5, hM2-Gqi5, and hM4-Gqi5 cells were grown in the same medium also containing 500 µg/mL Hygromycin B. Stable rM4-Gqi5 cells were grown in DMEM containing 10% heat-inactivated FBS, 20 mM HEPES, 400 μg/mL G418 sulfate, and 500 μg/mL Hygromycin B.
(§2) For high throughput measurement of agonist-evoked increases in intracellular calcium, CHO-K1 cells stably expressing muscarinic receptors were plated in growth medium lacking G418 and hygromycin at 15,000 cells/[…] in Greiner 384-well black-walled, tissue culture (TC)-treated, clear-bottom plates (VWR). Cells were incubated overnight at 37° C. and 5% CO2. The next day, cells were washed using an ELX 405 (BioTek) with four washes (80 μL) of assay buffer then aspirated to 20 μL. Next, 20 μL of 16 μM Fluo-4/acetoxymethyl ester (Invitrogen, Carlsbad, CA) prepared as a 2.3 mM stock in DMSO and mixed in a 1:1 ratio with 10% (w/v) Pluronic F-127 and diluted in assay buffer was added to the wells and the cell plates were incubated for 50 min at 37° C. and 5% CO2. Dye was removed by washing with the ELX 405 (four 80 μL washes of assay buffer) then aspirated to 20 μL. Compound master plates were formatted in an 11 point CR^c format (1:3 dilutions) in 100% DMSO with a starting concentration of 10 mM using the BRAVO liquid handler (Agilent). Test compound CRCs were then transferred to daughter plates (240 nL) using the Echo acoustic plate reformatter (Labcyte, Sunnyvale, CA) and then diluted into assay buffer ([…]) to a 2× stock using a Thermo Fisher Combi (Thermo Fisher Scientific, Waltham, MA).
Calcium flux was measured using the Functional Drug Screening System (FDSS) 6000 (Hamamatsu Corporation, Tokyo, Japan) as an increase in the fluorescent static ratio. Compounds were applied to cells (20 μL, 2×) using the automated system of the FDSS 6000 at 4 s into the 300 s protocol and the data were collected at 1 Hz. […] Agonist activity was analyzed as a concentration-dependent increase in calcium mobilization upon compound addition. Emax values for agonist activity are expressed relative to the maximum for acetylcholine. Positive allosteric modulator activity was analyzed as a concentration-dependent increase in the EC20 acetylcholine response. […]

Assay [2] deals with T1, human mAChRM1. The assay is described as follows: mAChR M1 cell-based functional assay (calcium mobilization), positive allosteric modulator activity: increase in the EC20 acetylcholine response. The settings on record: for Emax: PAM mode; for EC50: read-out: PAM Activity Human M1 EC50.
Source text: as §1, §2
Calcium flux was measured using the Functional Drug Screening System (FDSS) 6000 (Hamamatsu Corporation, Tokyo, Japan) as an increase in the fluorescent static ratio. Compounds were applied to cells (20 μL, 2×) using the automated system of the FDSS 6000 at 4 s into the 300 s protocol and the data were collected at 1 Hz. […] Agonist activity was analyzed as a concentration-dependent increase in calcium mobilization upon compound addition. Emax values for agonist activity are expressed relative to the maximum for acetylcholine. Positive allosteric modulator activity was analyzed as a concentration-dependent increase in the EC20 acetylcholine response. Antagonist activity was analyzed as a concentration-dependent decrease in the EC80 acetylcholine response. Concentration-response curves were generated using a four-parameter logistical equation in XLfit curve fitting software (IDBS, Bridgewater, NJ) for Excel (Microsoft, Redmond, WA) or Prism (GraphPad Software, Inc., San Diego, CA).
Activity (EC50 and Emax) was determined in the mAChRM1 cell-based functional assay as described above and the data are shown in Table 16. The compound numbers correspond to the compound numbers used in Table 15.

Setting [3] is: increase in the EC20 acetylcholine response.

For the compound `CC(C)(O)c1ccc(-c2cc(F)c(CN3Cc4ncccc4C3=O)c(F)c2)cn1` [Compound 6, 6-(2,6-difluoro-4-(6-(2-hydroxypropan-2-yl)pyridin-3-yl)benzyl)-6,7-dihydro-5H-pyrrolo[3,4-b]pyridin-5-one], at human mAChRM1 [1], the “Agonist Activity Human M1 EC50” value was “inactive”. For the same compound, the Emax at human mAChRM1 [2] is 80%. Besides, the EC50 at human mAChRM1 [2] (setting [3]) was ≥ 10000 nM.
Turning to `CC(C)(O)c1ccc(-c2cc(F)c(CN3Cc4ncccc4C3=O)c(F)c2)cc1F` [Compound 7, 6-((3,3′,5-trifluoro-4′-(2-hydroxypropan-2-yl)-[1,1′-biphenyl]-4-yl)methyl)-6,7-dihydro-5H-pyrrolo[3,4-b]pyridin-5-one], the “Agonist Activity Human M1 EC50” value at human mAChRM1 [1] was “inactive”. In addition, the Emax on human mAChRM1 [2] worked out at 71%. Also, the EC50 at human mAChRM1 [2] (setting [3]) was determined as 2670 nM.
`CC(C)(O)c1ccc(-c2cc(F)c(CN3Cc4ncccc4C3=O)c(F)c2)cc1Cl` [Compound 8, 6-((3′-chloro-3,5-difluoro-4′-(2-hydroxypropan-2-yl)-[1,1′-biphenyl]-4-yl)methyl)-6,7-dihydro-5H-pyrrolo[3,4-b]pyridin-5-one]: the “Agonist Activity Human M1 EC50” value on human mAChRM1 [1] was “inactive”. Also, at human mAChRM1 [2], the Emax was 69%. In addition, the EC50 on human mAChRM1 [2] (setting [3]) worked out at 1980 nM.
Take `Cc1cc(-c2ccc(C(C)(C)O)cc2)cc(F)c1CN1Cc2ncccc2C1=O` [Compound 9, 6-((3-fluoro-4′-(2-hydroxypropan-2-yl)-5-methyl-[1,1′-biphenyl]-4-yl)methyl)-6,7-dihydro-5H-pyrrolo[3,4-b]pyridin-5-one]: the “Agonist Activity Human M1 EC50” value at human mAChRM1 [1] was “inactive”. Besides, the Emax on human mAChRM1 [2] came to 76%. Further, the EC50 on human mAChRM1 [2] (setting [3]) was found to be 1330 nM.
`CC(C)(O)c1ccc(-c2cc(F)c(CN3Cc4ncccc4C3=O)c(C3CC3)c2)cc1` [Compound 10, 6-((3-cyclopropyl-5-fluoro-4′-(2-hydroxypropan-2-yl)-[1,1′-biphenyl]-4-yl)methyl)-6,7-dihydro-5H-pyrrolo[3,4-b]pyridin-5-one]: at human mAChRM1 [1], the “Agonist Activity Human M1 EC50” value is “inactive”. For the same compound, the Emax at human mAChRM1 [2] turned out to be 83%. Moreover, the EC50 on human mAChRM1 [2] (setting [3]) came to 813 nM.
Taken in the same sequence, the figures for `CC(C)(O)c1ccc(-c2ccc(CN3Cc4ncccc4C3=O)cc2)cc1` [Compound 11, 6-((4′-(2-hydroxypropan-2-yl)-[1,1′-biphenyl]-4-yl)methyl)-6,7-dihydro-5H-pyrrolo[3,4-b]pyridin-5-one] were “inactive”, 65% and 6400 nM.
Consider `Cc1cc(-c2ccc(C(C)(C)O)cc2)ccc1CN1Cc2ncccc2C1=O` [Compound 12, 6-((4′-(2-hydroxypropan-2-yl)-3-methyl-[1,1′-biphenyl]-4-yl)methyl)-6,7-dihydro-5H-pyrrolo[3,4-b]pyridin-5-one], for which the “Agonist Activity Human M1 EC50” value at human mAChRM1 [1] is “inactive”. For the same compound, the Emax at human mAChRM1 [2] was found to be 70%. In addition, on human mAChRM1 [2] (setting [3]), the EC50 turned out to be 5940 nM.
Taken in the same sequence, the figures for `CC(C)(O)c1ccc(-c2ccc(CN3Cc4ncccc4C3=O)c(F)c2)cc1` [Compound 13, 6-((3-fluoro-4′-(2-hydroxypropan-2-yl)-[1,1′-biphenyl]-4-yl)methyl)-6,7-dihydro-5H-pyrrolo[3,4-b]pyridin-5-one] were “inactive”, 72% and 2120 nM.
With `CC(C)COc1cc(-c2ccc(C(C)(C)O)cc2)cc(F)c1CN1Cc2ncccc2C1=O` [Compound 14, 6-((3-Fluoro-4′-(2-hydroxypropan-2-yl)-5-isobutoxy-[1,1′-biphenyl]-4-yl)methyl)-6,7-dihydro-5H-pyrrolo[3,4-b]pyridin-5-one], the “Agonist Activity Human M1 EC50” value on human mAChRM1 [1] was “inactive”. For the same compound, the Emax at human mAChRM1 [2] was 76%. For the same compound, the EC50 on human mAChRM1 [2] (setting [3]) is 2320 nM.
On to `CC(C)(O)c1cc(-c2cc(F)c(CN3Cc4ncccc4C3=O)c(F)c2)cc2c1OCO2` [Compound 17, 6-(2,6-difluoro-4-(7-(2-hydroxypropan-2-yl)benzo[d][1,3]dioxol-5-yl)benzyl)-6,7-dihydro-5H-pyrrolo[3,4-b]pyridin-5-one], for which the “Agonist Activity Human M1 EC50” value on human mAChRM1 [1] was “inactive”. In addition, on human mAChRM1 [2] (setting [3]), the “PAM Activity Human M1 EC50” value is “inactive”.
In the case of `Cc1cc(-c2cc3c(c(C(C)(C)O)c2)OCO3)cc(F)c1CN1Cc2ncccc2C1=O` [Compound 18, 6-(2-fluoro-4-(7-(2-hydroxypropan-2-yl)benzo[d][1,3]dioxol-5-yl)-6-methylbenzyl)-6,7-dihydro-5H-pyrrolo[3,4-b]pyridin-5-one], the “Agonist Activity Human M1 EC50” value at human mAChRM1 [1] is “inactive”. The Emax on human mAChRM1 [2] turned out to be 49%. Further, the EC50 at human mAChRM1 [2] (setting [3]) stood at 6370 nM.
Taken in the same sequence, the figures for `Cn1cc2c(C(C)(C)O)cc(-c3cc(F)c(CN4Cc5ncccc5C4=O)c(F)c3)cc2n1` [Compound 19, 6-(2,6-difluoro-4-(4-(2-hydroxypropan-2-yl)-2-methyl-2H-indazol-6-yl)benzyl)-6,7-dihydro-5H-pyrrolo[3,4-b]pyridin-5-one] were “inactive”, 50% and ≥ 10000 nM.
With `Cc1cc(-c2cc(C(C)(C)O)c3cn(C)nc3c2)cc(F)c1CN1Cc2ncccc2C1=O` [Compound 20, 6-(2-fluoro-4-(4-(2-hydroxypropan-2-yl)-2-methyl-2H-indazol-6-yl)-6-methylbenzyl)-6,7-dihydro-5H-pyrrolo[3,4-b]pyridin-5-one], the “Agonist Activity Human M1 EC50” value at human mAChRM1 [1] was “inactive”. At human mAChRM1 [2], the maximal effect (Emax) was determined as 47%. The EC50 at human mAChRM1 [2] (setting [3]) was ≥ 10000 nM.
In the case of `Cn1cc2c(C(C)(C)O)cc(-c3ccc(CN4Cc5ncccc5C4=O)c(F)c3)cc2n1` [Compound 21, 6-(2-fluoro-4-(4-(2-hydroxypropan-2-yl)-2-methyl-2H-indazol-6-yl)benzyl)-6,7-dihydro-5H-pyrrolo[3,4-b]pyridin-5-one], at human mAChRM1 [1], the “Agonist Activity Human M1 EC50” value is “inactive”. Moreover, the Emax at human mAChRM1 [2] was found to be 50%. In addition, on human mAChRM1 [2] (setting [3]), the half-maximal effective concentration (EC50) was ≥ 10000 nM.
